In US20230093861A1, “RAPAMYCIN ANALOGS AS MTOR INHIBITORS” (Revolution Medicines, Inc., priority 2017, published 2023):

How the values were obtained:
[1] = system: P-4E-BP1 (T37/46); assay: Cell based AlphaLISA assay, inhibition of P-4E-BP1 (T37/46) (mTORC1 substrate phosphorylation) in MDA-MB-468 cells; conditions: Homo sapiens, MDA-MB-468, 4 h, AlphaLISA, two to four hours at 37° C., read-out: pIC50 for Inhibition of mTORC1 and mTORC2 Substrate Phosphorylation, P-4E-BP1-(T37/46) (converted)
Outline: (§1)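 After treatment, cells were lysed in the kit's buffer once assay medium was withdrawn. Duplicate Alpha measurements tracked each phospho-epitope, and dose-response data were fitted to IC50 following normalization to control wells.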

[2] = system: P-P70S6K (T389); assay: Cell based AlphaLISA assay, inhibition of P-P70S6K (T389) (mTORC1 substrate phosphorylation) in MDA-MB-468 cells; conditions: Homo sapiens, 4 h, AlphaLISA, two to four hours at 37° C., read-out: pIC50 for Inhibition of mTORC1 and mTORC2 Substrate Phosphorylation, P-P70S6K-(T389) (converted)
Outline: as §1

[3] = system: P-Akt (S473); assay: Cell based AlphaLISA assay, inhibition of P-Akt (S473) (mTORC2 substrate phosphorylation) in MDA-MB-468 cells; conditions: Homo sapiens, MDA-MB-468, 4 h, AlphaLISA, two to four hours at 37° C., read-out: pIC50 for Inhibition of mTORC1 and mTORC2 Substrate Phosphorylation, p-AKT 1/2/3 -(S473) (converted)
Outline: as §1

Compound	IC50 [1]	IC50 [2]	IC50 [3]
CO[C@H]1C[C@@H]2CC[C@@H](C)[C@@](O)(O2)C(=O)C(=O)N2CCCC[C@H]2C(=O)O[C@H]([C@H](C)C[C@@H]2CC[C@@H](O)[C@H](OC)C2)C[C@@H](O)[C@H](C)/C=C(\C)[C@@H](O)[C@@H](OC)C(=NOCc2cn(CCOCCOCCOCCOCCOCCOCCOCCOCCC(=O)NCCCCn3nc(-c4ccc5oc(N)nc5c4)c4c(N)ncnc43)nn2)[C@H](C)C[C@H](C)/C=C/C=C/C=C/1C [Example 50]	3.16 to 31.6 nM	1 to 10 nM	31.6 to 1000 nM
CO[C@H]1C[C@@H]2CC[C@@H](C)[C@@](O)(O2)C(=O)C(=O)N2CCCC[C@H]2C(=O)O[C@H]([C@H](C)C[C@@H]2CC[C@H](n3cc(CCCC(=O)NCCOCCOCCOCCC(=O)NCCOCCOCCC(=O)NCCCCn4nc(-c5ccc6oc(N)nc6c5)c5c(N)ncnc54)nn3)[C@H](OC)C2)C/C(=N/OC(C)(C)C)[C@H](C)/C=C(\C)[C@@H](O)[C@@H](OC)C(=O)[C@H](C)C[C@H](C)/C=C/C=C/C=C/1C [Example 176]	> 1000 nM	10 to 1000 nM	> 1000 nM
CO[C@H]1C[C@@H]2CC[C@@H](C)[C@@](O)(O2)C(=O)C(=O)N2CCCC[C@H]2C(=O)O[C@H]([C@H](C)C[C@@H]2CC[C@@H](OCCCCc3cn(CCOCCOCCOCCOCCOCCOCCC(=O)N(C)CCCCn4nc(-c5ccc6oc(N)nc6c5)c5c(N)ncnc54)nn3)[C@H](OC)C2)CC(=O)[C@H](C)/C=C(\C)[C@@H](O)[C@@H](OC)C(=O)[C@H](C)C[C@H](C)/C=C/C=C/C=C/1C [Example 84]	< 3.16 nM	< 1 nM	3.16 to 31.6 nM
CO[C@H]1C[C@@H]2CC[C@@H](C)[C@@](O)(O2)C(=O)C(=O)N2CCCC[C@H]2C(=O)O[C@H]([C@H](C)C[C@@H]2CC[C@H](n3cc(-c4cnc(N5CCN(c6ncc(C(=O)NCCOCCOCCOCCC(=O)NCCCCn7nc(-c8ccc9oc(N)nc9c8)c8c(N)ncnc87)cn6)CC5)nc4)nn3)[C@H](OC)C2)CC(=O)[C@H](C)/C=C(\C)[C@@H](O)[C@@H](OC)C(=O)[C@H](C)C[C@H](C)/C=C/C=C/C=C/1C [Example 113]	< 3.16 nM	< 1 nM	3.16 to 31.6 nM
CO[C@H]1C[C@@H]2CC[C@@H](C)[C@@](O)(O2)C(=O)C(=O)N2CCCC[C@H]2C(=O)O[C@H]([C@H](C)C[C@@H]2CC[C@H](n3nncc3-c3cccc(-c4cnc(N5CCN(Cc6cn(CCOCCOCCOCCOCCC(=O)NCCCCn7nc(-c8ccc9oc(N)nc9c8)c8c(N)ncnc87)nn6)CC5)nc4)c3)[C@H](OC)C2)CC(=O)[C@H](C)/C=C(\C)[C@@H](O)[C@@H](OC)C(=O)[C@H](C)C[C@H](C)/C=C/C=C/C=C/1C [Example 30]	< 3.16 nM	< 1 nM	3.16 to 31.6 nM
CO[C@H]1C[C@@H]2CC[C@@H](C)[C@@](O)(O2)C(=O)C(=O)N2CCCC[C@H]2C(=O)O[C@H]([C@H](C)C[C@@H]2CC[C@H](n3cc(COC(=O)NCCOCCOCCOCCC(=O)NCCOCCOCCOCCC(=O)NCCCCn4nc(-c5cc6cc(O)ccc6[nH]5)c5c(N)ncnc54)nn3)[C@H](OC)C2)C/C(=N/OC(C)(C)C)[C@H](C)/C=C(\C)[C@@H](O)[C@@H](OC)C(=O)[C@H](C)C[C@H](C)/C=C/C=C/C=C/1C [Example 161]	> 1000 nM	> 1000 nM	> 1000 nM
CO[C@H]1C[C@@H]2CC[C@@H](C)[C@@](O)(O2)C(=O)C(=O)N2CCCC[C@H]2C(=O)O[C@H]([C@H](C)C[C@@H]2CC[C@@H](OCCCCc3cn(CCOCCOCCOCCOCCOCCOCCC(=O)N4CCC(Cn5nc(-c6ccc7oc(N)nc7c6)c6c(N)ncnc65)C4)nn3)[C@H](OC)C2)CC(=O)[C@H](C)/C=C(\C)[C@@H](O)[C@@H](OC)C(=O)[C@H](C)C[C@H](C)/C=C/C=C/C=C/1C (stereo partly drawn) [Example 8]	< 3.16 nM	< 1 nM	3.16 to 31.6 nM
CO[C@H]1C[C@@H]2CC[C@@H](C)[C@@](O)(O2)C(=O)C(=O)N2CCCC[C@H]2C(=O)O[C@H]([C@H](C)C[C@@H]2CC[C@@H](OCCCCc3cn(CCOCCOCCOCCOCCOCCOCCOCCOCCC(=O)NCCCCn4nc(-c5ccc6oc(N)nc6c5)c5c(N)ncnc54)nn3)[C@H](OC)C2)C[C@@H](OC)[C@H](C)/C=C(\C)[C@@H](O)[C@@H](OC)C(=O)[C@H](C)C[C@H](C)/C=C/C=C/C=C/1C [Example 77]	< 3.16 nM	< 1 nM	3.16 to 31.6 nM
CO[C@H]1C[C@@H]2CC[C@@H](C)[C@@](O)(O2)C(=O)C(=O)N2CCCC[C@H]2C(=O)O[C@H]([C@H](C)C[C@@H]2CC[C@H](n3cc(CCCC(=O)NCCOCCOCCOCCC(=O)NCCOCCOCCOCCC(=O)NCCCCn4nc(-c5ccc6oc(N)nc6c5)c5c(N)ncnc54)nn3)[C@H](OC)C2)C/C(=N/OCc2ccccc2)[C@H](C)/C=C(\C)[C@@H](O)[C@@H](OC)C(=O)[C@H](C)C[C@H](C)/C=C/C=C/C=C/1C [Example 174]	> 1000 nM	10 to 1000 nM	> 1000 nM
COC(=O)N[C@H]1C[C@@H]2CC[C@@H](C)[C@@](O)(O2)C(=O)C(=O)N2CCCC[C@H]2C(=O)O[C@H]([C@H](C)C[C@@H]2CC[C@@H](OCCCCc3cn(CCOCCOCCOCCOCCOCCOCCOCCOCCC(=O)NCCCCn4nc(-c5cnc6[nH]ccc6c5)c5c(N)ncnc54)nn3)[C@H](OC)C2)CC(=O)[C@H](C)/C=C(\C)[C@@H](O)[C@@H](OC)C(=O)[C@H](C)C[C@H](C)/C=C/C=C/C=C/1C [Example 81]	3.16 to 31.6 nM	1 to 10 nM	31.6 to 1000 nM
CO[C@H]1C[C@@H]2CC[C@@H](C)[C@@](O)(O2)C(=O)C(=O)N2CCCC[C@H]2C(=O)O[C@H]([C@H](C)C[C@@H]2CC[C@@H](O)[C@H](OC)C2)C[C@@H](OC)[C@H](C)/C=C(\C)[C@@H](O)[C@@H](OC)C(=NOCc2cn(CCOCCOCCOCCOCCOCCC(=O)NCCCCn3nc(-c4ccc5oc(N)nc5c4)c4c(N)ncnc43)nn2)[C@H](C)C[C@H](C)/C=C/C=C/C=C/1C [Example 12]	> 1000 nM	> 1000 nM	> 1000 nM
CO[C@H]1C[C@@H]2CC[C@@H](C)[C@@](O)(O2)C(=O)C(=O)N2CCCC[C@H]2C(=O)O[C@H]([C@H](C)C[C@@H]2CC[C@H](n3cc(-c4cnc(N5CCN(c6ncc(C(=O)NCCOCCOCCC(=O)NCCCCn7nc(-c8ccc9oc(N)nc9c8)c8c(N)ncnc87)cn6)CC5)nc4)nn3)[C@H](OC)C2)CC(=O)[C@H](C)/C=C(\C)[C@@H](O)[C@@H](OC)C(=O)[C@H](C)C[C@H](C)/C=C/C=C/C=C/1C [Example 111]	31.6 to 1000 nM	< 1 nM	31.6 to 1000 nM
CO[C@H]1C[C@@H]2CC[C@@H](C)[C@@](O)(O2)C(=O)C(=O)N2CCCC[C@H]2C(=O)O[C@H]([C@H](C)C[C@@H]2CC[C@H](n3cc(CCCC(=O)NCCOCCOCCOCCC(=O)NCCOCCOCCOCCC(=O)NCCCCn4nc(-c5cc6cc(O)ccc6[nH]5)c5c(N)ncnc54)nn3)[C@H](OC)C2)CC(=O)[C@H](C)/C=C(\C)[C@@H](O)[C@@H](OC)C(=O)[C@H](C)C[C@H](C)/C=C/C=C/C=C/1C [Example 131]	31.6 to 1000 nM	1 to 10 nM	31.6 to 1000 nM
